For series [1], the system named is NAD. The experiment in a line: Bioavailability and pharmacokinetics of NaR and fisetin: whole blood NAD (Example 6, Studies #1 and #2). It counts as in vivo, Canis familaris (dog)/Beagle. Here is the method: A series of pharmacokinetic studies were conducted to evaluate the bioavailability of a series of dosages and dosing regimens as measured in whole blood in non-fasted, adult Beagle dogs. NaR, NMN, Fisetin, individually and combination dosing (NaR-Fisetin and NMN-Fisetin) were tested.
Tables 1 and 2 show the dosing regimens of Study #1 conducted over 7 days and Study #2 conducted over 28 days, respectively. In Study #1, three dosage combinations were tested (Groups 1-3). An additional group (Group 4) was included to test the effects of fasting on the whole blood concentration of NAD. In Study #2, the effects of each compound individually and in combination were evaluated (Groups 1-3). Study #2 contained another test group (Group 4), which was included to compare the effects of NMN vs NaR in combination with Fisetin by Day 7 to determine if the effects seen on NAD concentration were unique to NaR vs. NAD booster, in general. Baseline NAD concentrations sampled over 24 hours on day −7 served as controls for endogenous NAD concentrations.
Two mL blood samples were collected at each time point using K2EDTA as an anticoagulant from all animals in each dose group. A sample was obtained prior to dosing (Day −7 pre-dose). On Day −7, groups 1-3 had 1 sample collected prior to feeding, and at times 0, 0.25, 0.5, 1, 2, 4, 6, 8, 12, and 24 hours post-Time Zero. On Day 2, groups 1-3 had 1 sample collected prior to feeding (˜2 hr prior to Time Zero) and at times 0, 0.25, 0.5, 1, 2, 4, 6, 8, 12, and 24 hours post-dose. On Days 3-5, samples were collected 2 hours post-dose, and on Day 7 samples were collected prior to feeding Groups 1-3 (˜2 hours prior to Time Zero) from all animals, and at time points 0.25, 0.5, 1, 2, 4, 6, 8, 12, and 24 hours post-dose.
For Group 2, on Day 21, post-dosing, and on Day 35, one sample was collected prior to feeding, and at times 0, 0.25, 0.5, 1, 2, 4, 6, 8, 12, and 24 hours post-Time Zero. The samples were processed for NAD+.
Two mL blood samples were collected at each time point using K2EDTA as an anticoagulant from all animals in each dose group. On Day 0 each group had 1 sample collected at times 0, 0.5, 1, 2, 4, 8, and 12 hours post-Time Zero. On Days 1, 2, 3, and 7, each group had 1 sample collected at times 0, 0.5, 1, 2, 4, 8, and 12 hours post-dose. On Days 14, 21, and 28 Groups 1-3 had samples taken at 0, 0.5, 1, 2, and 12 hours post-dose.
Immediately after collection, the sample tubes were inverted multiple times to ensure homogenization, then placed in an ice water bath until analysis. All samples were processed for NAD+ analysis and Fisetin analysis.
The bioanalytical data was used in the generation of a pharmacokinetic data using parameters calculated for each individual animal for Days 2 and 7, including: Tmax, Cmax, AUC0-24 and T½, as described in the previous examples, and the effect of repeat dosing on exposure was assessed by statistical analyses, e.g., mean and standard deviation for numerical parameters.

Series [2] has as its system male Beagle dogs. Kind of series: Seven day repeat dose tolerability study of NaR. The following applies: oral capsule, 10, 20 and 30 mg/kg/day for seven days. It counts as in vivo, Canis familaris (dog)/Beagle. Here is the method:
The objective of this study was to evaluate the tolerability and pharmacokinetic profile following 7-days of repeat dose administration of NaR.
NaR is provided as 100 mg capsule, size 4, stored at 18-26° C., and fisetin is provided as 100 mg capsule, size 0, stored at 18-26° C. Canis familaris (dog)/Beagle—nine non-naïve males, age 1-3 years, weight 7-11 kg.
(§1) The appropriate number of NaR capsules were administered once daily to non-naïve male beagle dogs. Capsules were followed by at least 5 mL of tap water to ensure complete delivery. Animals were fed approximately 2 hours prior to dosing, with food removed approximately 2 hours post-dose. Samples for bioanalysis were collected during the pre-dose period (Day −7; based on Time Zero of 9 am) at 0, 0.25, 0.5, 1, 2, 4, 6, 8, 12, and 24 hours post-Time Zero. Samples were collected on Day 1 and 7 at 0, 0.25, 0.5, 1, 2, 4, 6, 8, 12, and 24 hours post dose, and on Days 3-5 at 2 hours post dose. Samples were analyzed for NAD+ using a bioassay.

For series [3], the system named is purpose-bred beagles. Kind of series: Tolerability of orally administered NaR, single dose escalation and 7-day repeat dosing. It counts as in vivo. How it is done:
The tolerability of NaR administered orally was determined in a two-phase laboratory study in purpose-bred beagles (male and female, 6.3-9.2 kg, 6 months old at the start of the study). The first phase of the study included single dose escalations of 100, 300, 1000 and 2000 mg/kg (n=4 per group). The second phase tested repeat dosing consisting of daily dosing over seven days of 100, 300 and 1000 mg/kg (n=6 per group). Administration occurred via oral gavage with an 18 French catheter into the stomach. The animals were assigned to groups by a stratified randomization scheme designed to achieve similar group mean body weights. Males and females were randomized separately.

The test system of series [4] is mature purpose-bred beagles and mongrels. Kind of series: Activity and safety of orally administered NaR, 28-day placebo-controlled study. It counts as in vivo. The source says:
A double blinded, placebo-controlled, non-randomized laboratory study to assess activity and safety was completed in 15 mature purpose-bred beagles and mongrels over a period of 28 days. The four males and 11 females ranged in age from 4-11 years, with a mean of 7.75 years. Body weights for beagles (n=12) were 9.5-15 kg and for mongrels (n=3) 24-40 kg. The animals were fitted with activity collars and housed in a room that allowed free movement for ˜ nine hours per day. They received three enrichment periods of 15 minutes per day consisting of interaction with caretakers. The activity of the animals was tracked 24 hours per day using actigraphy (accelerometers attached to the animal's collar) and force plate analysis for assessing changes to gait. A modified canine cognitive dysfunction rating (CCDR) (Madari et al., “Assessment of Severity and Progression of Canine Cognitive Dysfunction Syndrome Using the Canine Dementia Scale (CADES),” Applied Animal Behaviour Science 171: 138-145 (2015), which is hereby incorporated by reference in its entirety) and canine orthopedic index (COI) (Brown, D., “The Canine Orthopedic Index. Step 1: Devising the Items,” Veterinary Surgery 43: 232-240 (2014); Brown, D., “The Canine Orthopedic Index. Step 2: Psychometric Testing,” Veterinary Surgery 43: 241-246 (2014); and Brown, D., “The Canine Orthopedic Index. Step 3: Responsiveness Testing,” Veterinary Surgery 43: 247-254 (2014), which are hereby incorporated by reference in their entirety) were completed pretreatment, and on days 14 and 28. Physical examination, body weight, body condition score (BCS) and complete blood count and blood chemistry were evaluated pretreatment and weekly. The animals were dosed orally with capsules daily after an overnight fast.

In series [5] the test system is aged C56BL/6 male mice. The experiment in a line: Frailty measurements in aged mice (Frailty Index, FRIGHT Age, AFRAID score). Type of series: in vivo. How it is done:
Frailty was measured in aged C56BL/6 male mice, starting at 18 months old (n=50 per group) monthly, over time compared with placebo-treated controls. NaR was administered in the water in low and high dosages of 60 and 400 mg/kg. The animals were group housed 4 per cage and the water was changed weekly. The animals were fed ad libitum and received daily photoperiods of approximately 12 hours of light alternating with 12 hours of darkness.
Three validated scoring methods, Frailty Index (Whitehead et al., “A clinical frailty index in aging mice: Comparisons with frailty index data in humans” J Gerontol A Biol Sci Med Sci. 69:621-632(2014)), FRIGHT Age (Schultz et al., “Age and life expectancy clocks based on machine learning analysis of mouse frailty” Nature Comm. 11(1):4618 (2020)) and AFRAID score (Schultz et al., “Age and life expectancy clocks based on machine learning analysis of mouse frailty” Nature Comm. 11(1):4618 (2020)) were conducted at 25 months of age. […]

Series [6] concerns NAD+. Kind of series: Treated whole blood NAD+ pharmacokinetics after 7-day oral NaR (Examples 1 and 4). It counts as in vivo, Canis familaris (dog)/Beagle. How it is done: as §1
A non-compartmental Pharmacokinetic (PK) approach consistent with oral route of administration was used to estimate PK parameters in Watson LIMS (version 7.5). All parameters were generated from individual concentrations in treated whole blood whenever practical. Mean values for each dose group were also reported. All concentration values were in ng/mL, and all time points were in hours. Nominal dose concentrations and sampling times were used. The observed maximum treated whole blood concentration (Cmax), time of Cmax (Tmax), and AUC (area under the concentration vs. time curve) were determined directly from the data during the entire 24 hour time interval post dosing. The dose levels were either 10, 20, or 30 mg/kg/day (Groups 1, 2, and 3, respectively). PK samples were collected on days −7 predose, 1 and 7 post dose, of a seven day once daily study. Samples on days 3, 4, and 5 postdose, at only one timepoint were collected but not included in PK parameter estimation.
Whenever possible, standard deviation and coefficient of variation determined by Watson LIMS were used. For analyses that were not supported by Watson, i.e. custom comparisons, Excel was used, and the statistics were reported as determined by Excel algorithms.

Where [7] appears, read: Beagle dogs, all dosing regimens of Studies #1 and #2.
Setting [8] is: beagles, oral gavage, highest dosage tested.
Setting [9] is: beagles, oral gavage, single 100-2000 mg/kg and 7-day 100-1000 mg/kg.
Where [10] appears, read: treated dogs compared with controls, oral capsules daily, 28 days.
Where [11] appears, read: Beagle dogs, oral NaR 10, 20, 30 mg/kg/day, post dose.

Entries after “also recorded” stand apart in the source; their conditions may differ.

Consider `O=c1c(O)c(-c2ccc(O)c(O)c2)oc2cc(O)ccc12` [fisetin, 3,3′,4′,7-tetrahydroxyflavone], for which, in series [1] (fisetin only dosing), the “NAD concentration at Day 28” value was “returned to baseline”; the “NAD concentration at days 7, 14 and 21” value is “decreased”. Besides, the “whole blood NAD concentration” value in series [1] (fisetin only dosing, 20 mg/kg) is listed as “below 7000 ng/mL”.
On to `O=C([O-])c1ccc[n+]([C@@H]2O[C@H](CO)[C@@H](O)[C@H]2O)c1` [NaR, nicotinic acid riboside], for which, in series [1] (setting [7]), the “median AUC0-24 of whole blood NAD” value was 133,000 ng·h/mL and the “median Cmax of whole blood NAD” value amounted to 6990 ng/mL. Further, in series [1] (NaR only dosing, 20 mg/kg), the “NAD concentration from Day 7 to Day 28” value is listed as “decrease”. Besides, the “NAD concentration from Day 1 to Day 7” value in series [1] (NaR only dosing, all dose levels) is given as “increase”. Moreover, the “AUC and NAD concentrations, NaR only dose levels compared” value in series [1] (NaR only, dose of 20 mg/kg) was “highest AUC and NAD concentrations”. Besides, the “test article-related effects on mortality or moribundity, clinical observations, body weight, food consumption; tolerability” value in series [2] was “no test article-related effects; also recorded: well tolerated”. Moreover, the “increase in sorbitol dehydrogenase (SDH) activity” value in series [3] (300 and 1000 mg/kg males, 300 mg/kg females, Day 2 vs pretreatment, low magnitude (e.g., 0 U/L to 2 U/L)) is “non-adverse”. In series [3] (setting [8]), the “maximum tolerated dosage, 7-day repeat dosing phase” value worked out at 1000 mg/kg/day and the “maximum tolerated dosage, single dosing phase” value was 2000 mg/kg. In addition, in series [3] (setting [9]), the “Body weights and food consumption” value was “unaffected by treatment”; the Survival entry is listed as “All animals survived”; the “treatment related clinical observations” value is listed as “no treatment related clinical observations”. Further, in series [4] (oral capsules daily, 28 days), the adverse clinical observations result is listed as “No adverse clinical observations”; the “blood chemistry and hematology results” value is “remained within the reference ranges”. Moreover, the “canine cognitive dysfunction rating (CCDR) and canine orthopedic index (COI)” value in series [4] (pretreatment, days 14 and 28) was “No changes”. In addition, in series [4] (setting [10]), the “movement when resting (sleep), actigraphy” value was “less movement when resting”; the “overall activity (frequency and intensity), diurnal rhythm, actigraphy” value is recorded as “increase in overall activity”. The “Frailty vs controls, both treatment groups (60 and 400 mg/kg)” value in series [5] (in two of the three methods) is given as “significantly different”. Further, the “Frailty vs controls by all three methods (Frailty Index, FRIGHT Age, AFRAID score)” value in series [5] (low dose 60 mg/kg in the water, end of the study, p<0.05) is reported as “significantly less frail”. In series [6] (setting [11]), the “Median Tmax of NAD+ in treated whole blood” value was “less than 2 hours” and the “Tmax of NAD+, range of values” fell in the range of 0 to 2 h. Besides, in series [6] (Beagle dogs, oral capsule, 10-30 mg/kg/day, 7 days), the “NAD+ levels after oral capsule administration” value was “measurable increases”. The “Mean Cmax of NAD+, change between Day 1 and Day 7” value in series [6] (all dose groups (10, 20, 30 mg/kg/day)) is recorded as “accumulation; also recorded: increase”. In addition, in series [6] (highest dose group (30 mg/kg/day) compared to the others), the “NAD+ Cmax ratio between Day 7 and Day 1, individual animals” value was “clear increase”. Also, the “NAD+ AUC0-24 ratio between Day 7 and Day 1, individual animals” value in series [6] (mid dose group (20 mg/kg/day) compared to the other two groups) was “higher value”. In addition, the “Bioavailability (conclusion from NAD+ bioanalysis)” value in series [6] (oral capsule, Beagle dogs) is “bioavailable”.
